According to US11291666B2, “Uses” (INTRA-CELLULAR THERAPIES, INC., priority 2016, dated 2022):

Tests used:
[1] = system: BV2 cells; experiment: RT-qPCR of selected genes in BV2 cells with ITI-214, cyclase activators and PKA/PKG inhibitors; type: cell-based, mouse; conditions: 10 μM forskolin, 5 μM DEANO or 100 nM ANP
Description: In a further experiment a group of genes is selected for further analysis by RT-qPCR. For comparison, genes are analyzed which have been implicated in the scientific literature in microglial and astrocyte activation, including genes in the complement pathway.
All sample values are normalized to an average of 3 reference genes and to vehicle control (ΔΔCt). The error bars represent the mean+/−SEM (n=4). From left to right, for each cytokine grouping, the bars indicate samples treated with: LPS, 0.1 μM 214+LPS, 0.4 μM 214+LPS, 1.1 μM 214+LPS, 3.3 μM 214+LPS, 10 μM 214+LPS, for each particular gene shown on the X-axis. Significant changes between LPS and 10 μM ITI-214+LPS (A) and Vehicle and 10 μM ITI-214 (B) are marked on the X-axis gene names and are calculated using a one-way ANOVA. * p<0.05, **p<0.01, ***p<0.001, ****p<0.0001.
In one particular experiment, BV2 cells are treated with 10 μM forskolin (FSK) to activate adenylyl cyclases, 5 μM DEANO to activate soluble guanylyl cyclase, or 100 nM atrial natriuretic peptide (ANP) to activate particulate guanylyl cyclase. […] Upon combining forskolin with ITI-214 some of the effects of ITI-214 inhibition can be increased. […] However, LIF reverts to LPS-level expression when forskolin is added.
Note that gene expression levels upon addition of PKA or PKG inhibitor to 10 μM ITI-214 are on the order of those relative to LPS treatment alone were reduced to levels equivalent to 3.3 μM ITI-214.

[2] = system: HL60 cells; experiment: Total cGMP levels in PMA-differentiated HL60 cells with ANP and ionomycin (competitive ELISA); type: cell-based, human
Description: We have shown that there is a synergistic effect between ANP and PDE1 inhibition. An immortalized human pro-myeloid cell line (HL60 from ATCC) is grown, differentiated and harvested as described in Bender, A T, and Beavo, J A, 2006, PNAS 103, 460-465. The cells are grown in HEPES buffered RPMI 1640 medium with penicillin, streptomycin, and 10% fetal bovine serum. Phorbol-12-myristate-13-acetate (PMA), at 100 nM for 3 days, is used to differentiate the HL60 cells into macrophage-like cells. Following differentiation, the cells are incubated with a PDE1 inhibitor or vehicle (DMSO) beginning at time 0. At 40 minutes, 5 μM ionomycin (a calcium ionophore) is added. At 50 minutes, 100 nM ANP was added. At 60 minutes, the cells are harvested. Total cGMP levels are measured using a competitive ELISA (Bender and Beavo, 2006).

[3] = system: retinal ganglion cells; experiment: Optic nerve injury (optic crush) model; type: in vivo, mouse; conditions: mice; intraocular injection after optic nerve injury; 14 days; FIG. 12
Description: A PDE1 inhibitory compound is tested in an optic nerve injury model (i.e., the “optic crush” model). The studies described below are carried out using the selective PDE1 inhibitor IC200041, which has the following structure:
In this model, optic nerve surgeries are carried out on male mice 8 wk of age (average body weight, 20-26 g) under general anesthesia, as described previously (Yin Y, et al., Oncomodulin links inflammation to optic nerve regeneration. Proc Natl Acad Sci USA. 2009; 106:19587-19592). Following nerve injury, 3 μl of fluid is removed from the eye and a solution containing the PDE1 inhibitory compound is injected intraocularly.
A total of 4 mouse retinas are treated with the PDE1 inhibitor, and phosphate buffered saline (PBS) is administered to a total of 10 mouse retinas as a control. Mice are typically euthanized with an overdose of anesthesia 14 days after optic nerve injury and are perfused with saline and 4% paraformaldehyde (PFA). These mice are 10 weeks old when killed. Optic nerves and eyes are dissected and postfixed in PFA. […] Axons are counted manually in at least 8 longitudinal sections per case at pre-specified distances from the injury site, and these numbers were converted into the number of regenerating axons at various distances.

[4] = system: BV2 cells; experiment: RNAseq analysis of LPS-stimulated BV2 cells, differentially expressed transcripts; type: cell-based, mouse; conditions: for genes significantly affected by this compound but not the other (Compound 214 / Rolipram): LPS-stimulated BV2 cells
Description: (§1) The test compound is added first, the LPS is added one hour later, and the cells and/or media are harvested at five hours from commencement of the experiment.
RNASeq: Flashfreeze BV2cells, isolate RNA, prepare a library using polyA selection, and conduct 1×50 bp single read sequencing on the Illumina HiSeq 2500 in High Output mode (using V4 chemistry). Genes are mapped to reference genome (GRCm38) using CLC Genomics Server. Number of reads per sample average ˜17 million. Differential gene expression analysis is performed using DESeq2software (Bioconductor.org). Differentially expressed genes (p<0.01, Waldtest) are reported as log 2(fold change).

[5] = system: inflammatory gene expression in mouse striatum; experiment: Inflammatory gene expression in mouse striatum after LPS (Q-PCR); type: in vivo; conditions: Striatum Mouse + LPS; initial results
Description: (§2) RTqPCR: RNA from BV2 cells purified using RNeasyKit (Qiagen) and from mouse tissue using TRIzol (Ambion). TaqMan primer-probe assays from Thermo Fisher. mRNA levels for all conditions are normalized to GAPDH and to vehicle control (ΔΔCt). Data are analyzed statistically using one-way ANOVA with the Bonferroni post-test for multiple comparisons.
The results are based upon an evaluation of samples using Q-PCR.
Data from a further experiment measuring the effect of PDE1 inhibition on inflammatory gene expression in mouse striatum is depicted in FIG. 7. […] Striatal tissue is isolated and flash frozen, and RNA is extracted. Measurements from RT-qPCR are shown as log 2 fold change (2ΔΔCt). n=4 *p<0.05, **p<0.01, ***p<0.001, ****p<0.0001.
Data from yet another experiment measuring the effect of PDE1 inhibition on inflammatory gene expression in mouse striatum is depicted in FIG. 8. […] Striatal tissue is analyzed for mRNA levels of TNF, IL1β, Ccl2, and IL6. Expression levels are shown as change in Q-PCR signal from vehicle (ΔΔCt) and compared using an ANOVA. * p<0.05, **p<0.01, ***p<0.001.

[6] = system: BV2 cells; experiment: Quantitative PCR of inflammatory cytokine mRNA in LPS-treated BV2 cells; type: cell-based, mouse
Description: Levels of IL1β are measured using quantitative PCR of IL1β mRNA. IL1β is considered a marker of inflammation. Results are depicted in FIG. 2 (RQ: relative quantification of changes in gene expression in treated versus control samples; ***p<0.01 vs control, √p<0.01 vs LPS alone; ANOVA with Newman-Keuls post-hoc test).
BV2 cells are pretreated with compound, ITI-214 or rolipram, a PDE4 inhibitor, then stimulated with 50 ng/ml LPS for 4 hours. Expression levels of TNF, IL1β, Ccl2, and IL6 are measured. Normalized mRNA levels are shown as change from vehicle (ΔΔCt) and compared using a one-way ANOVA. […] The mRNA transcripts for TNF, IL1β, and Ccl2—three of the four cytokines studied in vivo—were elevated in BV2 cells treated with 50 ng/ml LPS.
as §1, §2

[7] = BV2 cells, Compound 214 at 10 μM, FIG. 4a

SMILES: CCN(CC)/[N+]([O-])=N/[O-].[Na+] [DEANO, reference compound]
- effect of the activator alone on LPS induction of the selected genes [1]: little or no effect

SMILES: CN1C(=O)c2c(nn(Cc3ccc(C(F)(F)F)cc3)c2Nc2ccccc2)N2C1=N[C@@H]1CCC[C@@H]12 [Example 20 of U.S. Pat. No. 8,273,750, (6aR,9aS)-3-(phenylamino)-5,6a,7,8,9,9a-hexahydro-5-methyl-2-(4-(trifluoromethyl)-benzyl)-cyclopent[4,5]imidazo[1,2-a]pyrazolo[4,3-e]pyrimidin-4(2H)-one]
- cGMP level, ANP in combination with the PDE1 inhibitor versus either alone ([2]; 100 nM ANP + 100 nM PDE1 inhibitor): greater
- decreasing cGMP signal caused by activation of PDE1 by ionomycin ([2]; PDE1 inhibitor + sub-optimal ANP, ionomycin 5 μM): synergistically prevented
- cGMP level, co-treatment with ANP and the PDE1 inhibitor versus ANP and SCH 51866 ([2]; SCH 51866 used at 5 μM): much greater
- effect of ionomycin on cGMP when combined with ANP and the PDE1 inhibitor ([2]; ionomycin 5 μM): only a weak cGMP lowering effect

SMILES: CN1C(=O)c2c(nn(Cc3ccc(-c4ccccn4)cc3)c2Nc2ccccc2)N2C1=N[C@@H]1CCC[C@@H]12 [IC200041]
- survival of retinal ganglion cells compared with the PBS control [3]: highly effective

SMILES: CC[C@H](C)[C@@H]1NC(=O)[C@H](CCCNC(=N)N)NC(=O)[C@H](CC(=O)O)NC(=O)[C@H](CCSC)NC(=O)[C@H](CCCNC(=N)N)NC(=O)CNC(=O)CNC(=O)[C@H](Cc2ccccc2)NC(=O)[C@@H](NC(=O)[C@H](CO)NC(=O)[C@H](CO)NC(=O)[C@H](CCCNC(=N)N)NC(=O)[C@H](CCCNC(=N)N)NC(=O)[C@H](CC(C)C)NC(=O)[C@@H](N)CO)CSSC[C@@H](C(=O)N[C@@H](CC(N)=O)C(=O)N[C@@H](CO)C(=O)N[C@@H](Cc2ccccc2)C(=O)N[C@@H](CCCNC(=N)N)C(=O)N[C@@H](Cc2ccc(O)cc2)C(=O)O)NC(=O)CNC(=O)[C@H](CC(C)C)NC(=O)CNC(=O)[C@H](CO)NC(=O)[C@H](CCC(N)=O)NC(=O)[C@H](C)NC(=O)CNC1=O [atrial natriuretic peptide, reference compound]
- effect of the activator alone on LPS induction of the selected genes [1]: little or no effect

SMILES: COc1ccc(C2CNC(=O)C2)cc1OC1CCCC1 (stereo not shown) [rolipram, reference compound]
- mRNA transcripts decreased in the presence of LPS + compound vs. LPS alone ([4]; BV2 cells, RNAseq): 209 transcripts
- transcripts elevated in the presence of LPS + compound vs. LPS alone ([4]; BV2 cells, RNAseq): 156 transcripts
- genes significantly affected by this compound but not the other (Compound 214 / Rolipram) ([4]; further RNASeq analysis): 251 genes
- genes significantly affected by this compound but not the other (Compound 214 / Rolipram) ([4]; still a further experiment): 1463 genes
- Chemokine (C-C) motif Ligand 2 expression (Q-PCR) [5]: Down
- Interleukin 1 beta expression (Q-PCR) [5]: UP-UP
- Interleukin 6 expression (Q-PCR) [5]: UP-UP
- Oncostatin M expression (Q-PCR) [5]: Down
- Tumor necrosis factor expression (Q-PCR) [5]: Down
- Chemokine (C-C) motif Ligand 2 expression (Q-PCR) ([6]; BV2 + LPS, initial results): Down
- Interleukin 1 beta expression (Q-PCR) ([6]; BV2 + LPS, initial results): UP UP
- Tumor necrosis factor expression (Q-PCR) ([6]; BV2 + LPS, initial results): Down
- LPS-induced increase in expression of Ccl2 [6, 7]: reducing
- LPS-induced increase in expression of IL1β [6, 7]: increasing
- LPS-induced increase in expression of TNFα [6, 7]: reducing
